Experiment: Intranasal bioavailability of L-lysine-d-amphetamine vs amphetamine (ELISA)
Conditions: rat, 3 mg/kg

Substance: d-amphetamine
- AUC (0-[…]) of d-amphetamine (hydrochloride salt study): 727 ng·h/mL
- Cmax of d-amphetamine (hydrochloride salt study): 1,377 ng/ml
- AUC (0-1.0 h) of d-amphetamine (mesylate salt study): 573 ng·h/mL
- Cmax of d-amphetamine (mesylate salt study): 1114 ng/mL

— patent US20090181898A1, “ABUSE-RESISTANT A[…]” (SHIRE LLC, priority 2002, published 2009)
